From BindingDB's records for doi:10.1021/acs.biochem.6b00338 (University of California Santa Cruz, 2016)

Molecular target: T1, Arachidonate 15-lipoxygenase (Pseudomonas aeruginosa, UniProt Q9I4G8)
T1 sequence (Q9I4G8 whole entry): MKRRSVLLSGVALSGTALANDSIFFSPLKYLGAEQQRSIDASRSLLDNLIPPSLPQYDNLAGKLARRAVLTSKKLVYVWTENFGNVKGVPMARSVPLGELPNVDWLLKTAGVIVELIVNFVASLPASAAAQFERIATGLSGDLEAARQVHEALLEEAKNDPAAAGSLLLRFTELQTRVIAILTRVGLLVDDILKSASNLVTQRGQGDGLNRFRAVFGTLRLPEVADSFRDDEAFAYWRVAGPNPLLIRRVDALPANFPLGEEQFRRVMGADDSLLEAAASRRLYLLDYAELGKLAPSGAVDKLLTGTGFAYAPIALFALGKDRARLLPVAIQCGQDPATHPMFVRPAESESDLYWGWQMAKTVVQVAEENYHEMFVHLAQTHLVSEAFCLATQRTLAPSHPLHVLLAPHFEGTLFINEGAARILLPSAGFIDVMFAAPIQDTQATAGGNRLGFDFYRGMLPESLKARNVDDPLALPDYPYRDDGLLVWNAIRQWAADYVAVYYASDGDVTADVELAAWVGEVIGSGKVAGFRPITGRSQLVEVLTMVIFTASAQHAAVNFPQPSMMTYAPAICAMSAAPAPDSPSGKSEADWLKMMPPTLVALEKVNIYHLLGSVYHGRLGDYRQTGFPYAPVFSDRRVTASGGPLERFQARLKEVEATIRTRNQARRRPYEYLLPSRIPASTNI
Assay: LoxA Selectivity Assay
Conditions: pH 7; 25 °C
Method: The one-point inhibition percentages were determined for human LOX inhibitors by following the formation of the conjugated diene product at 234 nm (ε = 25,000 M−1 cm−1) at an inhibitor concentration of 25 μM. All reaction mixtures were 2 mL in volume and constantly stirred using a magnetic stir bar at room temperature (22 °C) with 7 nM LoxA. Reactions were conducted in 25 mM HEPES buffer (pH 7.0), 0.01% Triton X-100, and 10 μM AA. The concentration of AA was quantitatively determined by allowing the enzymatic reaction to go to completion. Confirmed hitswere then screened against the human isozymes 5-LOX, 15-LOX-1, 15-LOX-2, and 12-LOX for specificity.

| Structure (SMILES) | IC50 |
| --- | --- |
| CCCCCCc1ccc(Oc2ccccc2Cl)c(O)c1 [PT91] | 2600 nM |
| O=C(OCC#CCSc1nnc(-c2cccc3ccccc23)o1)c1ccccc1 [4-(5-(Naphthalen-1-yl)-1,3,4-oxadiazol-2-ylthio)but-2-ynyl benzoate] | 10 nM |
| CCCCCCc1ccn(Cc2ccccc2C)c(=O)c1 [PT171] | 520 nM |

Next, values leading:

| IC50 | Structure (SMILES) |
| --- | --- |
| 500 nM | CC(Cc1ccc(O)c(O)c1)C(C)Cc1ccc(O)c(O)c1 (stereo not given) [LOX inhibitor, N/A] |
| 1000 nM | CCCCCCc1ccc(Oc2ccccc2F)c(O)c1 [PT113] |
